According to patent US9289428B2, “Conveniently injectable or implantable sustained-release antioxidant formulations for therapies of ocular maladies or cancer” (RAMSCOR, INC., priority 2011, dated 2016):
Where two headings read alike, the source gives them in different places.

Assays:
[1] = Concentration of active agent in the rabbit eye after injection of a sustained release formulation into the vitreous; assay type: in vivo
Description: A 10 μL unit dose of either formulation 1 or formulation 2 was injected into the eyes of two rabbits, and the concentration of timolol or dexamethasone (dex) remaining in the eye tested at 7 days and 14 days thereafter. A 50 μL unit dose was injected into the vitreous of two rabbit's eyes, and the concentrations of active agent detected 7 days thereafter and averaged. Timalol was detected at 8.93 μg/mL; Dex was detected at 2.82 μg/mL.
A formulation consisting of 20% timolol maleate:10% Reservatrol:70% (1:1 ATEC:EA) was prepared by mixing. A unit dose of 50 μL was injected into the vitreous of two rabbit eyes, and Reservatrol was detected at 0.64 μg/mL (average) 7 days thereafter.

B16 melanoma tumors = assay: Mouse B16 melanoma tumor model, single intratumoral implantation of sustained release antioxidant formulation; assay type: in vivo, C57 mouse
From the text: A mouse model was used to study the in vivo effect of sustained release antioxidant formulations on melanoma tumors. Mouse B16 melanoma Cell lines were obtained from NCI-Frederick, Md. C57 Mice were obtained from Simonsen Laboratories in Gilroy, Calif. Anesthesia was Ketamine/Xylazine/Acepromacine 1:1:0.03 mixture. […] cell suspension and 1×1 mm tumor pieces were preserved in 90% Fetal Bovine Serum and 10% DMSO in liquid nitrogen. Tumor was also maintained by in vivo serial subcutaneous passage.
Mice of either sex, weighing 16-18 grams, were anesthetized with the ketamine mixture. Subcutaneous implantation of the B16 suspension (100 ul of 2×10^6/ml) or solid tumor piece were performed in the back or nape of the mouse. Tumors were treated when tumor reached the average size of 6×6 mm in diameter and weighed approximately 0.6-0.8 grams in 7-10 days.
Treatment consisted of a single intratumoral implantation of semi-solid drug formulations. Each formulation consisted of 2 mg of active pharmaceutical ingredient (API): either Resveratrol, Astaxanthin, or Melatonin; in either tocopherol acetate (EA), benzyl benzoate (BB), or acetyltriethyl citrate (ATEC) excipients (all Sigma Chemical). The ratio of API and excipient was 80:20 by weight.

Structure (SMILES): C[C@@H]1C[C@H]2[C@@H]3CCC4=CC(=O)C=C[C@]4(C)[C@@]3(F)[C@@H](O)C[C@]2(C)[C@@]1(O)C(=O)CO [Dex, dexamethasone]
- concentration at 7 days ([1]; rabbit, in vivo): 2820 ng/mL

Structure (SMILES): Oc1ccc(/C=C/c2cc(O)cc(O)c2)cc1 [Reservatrol, 3,5,4′-trihydroxy-trans-stilbene]
- concentration at 7 days ([1]; other: intravitreal injection, 50 μL unit dose of 20% timolol maleate:10% Reservatrol:70% (1:1 ATEC:EA) injected into vitreous of two rabbit eyes, 7 days thereafter, average, read-out: concentration of Reservatrol detected in the vitreous): 640 ng/mL

Structure (SMILES): CC(C)(C)NC[C@H](O)COc1nsnc1N1CCOCC1 [Timalol, timolol]
- concentration at 7 days ([1]; rabbit, in vivo): 8930 ng/mL

Structure (SMILES): CC1=C(/C=C/C(C)=C/C=C/C(C)=C/C=C/C=C(C)/C=C/C=C(C)/C=C/C2=C(C)C(=O)[C@@H](O)CC2(C)C)C(C)(C)C[C@H](O)C1=O [astaxanthin]
- time to complete clinical resolution of the tumor (B16 melanoma tumors; after the single treatment): 5-7 weeks
- time to peeling of overlying skin surface and beginning ulceration (B16 melanoma tumors; after the single treatment): about one
- tumor growth after treatment (B16 melanoma tumors; after the single treatment): stopped growing immediately
- condition and body weight of the animals (B16 melanoma tumors; until termination of the experiment on day 90): remained active and continued to gain weight
